Results as given in patent EP0224596A1, “Use of dibenzocyclooctadiene lignans extracted from Schisandrae Fructus for the manufacture of a medicament for the treatment of hepatic failure” (priority 1985, dated 1986).

What was measured:
[1] = system: mice with acute hepatic failure; test: Effect on survival ratio of mice with acute hepatic failure (heat-killed P. acnes + LPS); format: in vivo, male balb/c strain mice; details: survival twenty-four hours after injection of LPS, control 7.5
Description: Seven groups of male balb/c strain mice (six weeks of age) were used. Each group included 40 mice. Acute hepatic failure was induced by the injection of 1 µg/mouse of LPS (lipopolysaccharide, Difco Laboratories) to mice that had been injected with 1 mg/mouse of heat-killed P. acnes (Propionibacterium acnes, First Department of Biochemistry in Osaka City Univ. Medical School) seven days before. The above obtained compounds (deoxyschizandrin, gomisin N, schizandrin, gomisin A, q-schizandrin and wuweizisu C) which had been suspended in 0.5% CMC (carboxymethyl cellulose, Wako Junyaku Kogyo, Co. Ltd.), was given p.o. to each group eight hours after the injection of LPS. Only vehicle (CMC) was given p.o. to one remaining group as a control group.
Survival ratio of mice was periodically examined twenty-four hours after induction of acute hepatic failure. Each dose of the above compounds and corresponding survival ratio twenty-four hours after the injection of LPS are shown in Table 1.

[2] = Acute toxicity LD50, p.o.; details: mouse, in vivo, po; p.o. in ddY mice
Source text: And estimated clinical daily doses of the present therapeutic drugs for patients with hepatic failure are also given in Table 2.

[3] = system: rats with acute hepatic failure; test: Survival ratio and serum GOT in acute hepatic failure induced by P. acnes + LPS; format: in vivo, male Wistar rats; details: for survival ratio: LPS on day seven, control 8.8%
Description: Three groups of male Wistar rats were used. Each group included 45 rats. Each rat in all groups was injected with 10 mg/rat of P. acnes. Four days after, gomisin A (100mg/kg, […]) obtained in Production Example 3 were suspended in 2% Tween 80/saline and administered i.p. to respectively two of three groups. Only vehicle (2% Tween 80/saline) was administered i.p. to one remaining group as a control group. All rats were injected with 50µg/rat of LPS, seven days after the injection of P. acnes. Twenty-four hours after the injection of LPS, blood samples were collected from surviving rats by heart puncture, and serum GOT activities were measured. GOT is one of amino acid transferases contained in liver cells. High serum GOT activities reflect large number of destroyed liver cells.

[4] = dose 50 mg/kg p.o. in 0.5% CMC eight hours after LPS
[5] = dose 20 mg/kg p.o. in 0.5% CMC eight hours after LPS

SMILES	Survival Ratio (%) [1, 4] [%]	LD50 [2] [mg/kg]	Survival Ratio (%) [1, 5] [%]	other results
COc1cc2c(c(OC)c1OC)-c1c(cc(OC)c(OC)c1OC)C[C@H](C)[C@H](C)C2 [Deoxyschizandrin, deoxyschizandrin]	55	2000	–	–
COc1cc2c(c(OC)c1OC)-c1c(cc3c(c1OC)OCO3)CC(C)C(C)(O)C2 (centres unmarked) [Gomisin A, gomisin A]	–	777	–	Survival Ratio (%) ([1]; dose 10 mg/kg p.o. in 0.5% CMC eight hours after LPS): 80%; survival ratio ([3]; 50mg/kg i.p. in 2% Tween 80/saline four days after P. acnes): 83.3%; survival ratio ([3]; 100mg/kg i.p. in 2% Tween 80/saline four days after P. acnes): 100%; average serum GOT activities ([3]; 100mg/kg i.p., surviving rats, twenty-four hours after injection of LPS, control 7000 IU): 140 IU
COc1cc2c(c(OC)c1OC)-c1c(cc3c(c1OC)OCO3)CC(C)C(C)C2 (centres unmarked) [Gomisin N, gomisin N]	–	2000	80	–
COc1cc2c(c(OC)c1OC)-c1c(cc(OC)c(OC)c1OC)C[C@](C)(O)[C@@H](C)C2 [Schizandrin, schizandrin]	50	1450	–	–
COc1c2c(cc3c1-c1c(cc4c(c1OC)OCO4)CC(C)C(C)C3)OCO2 (centres unmarked) [Wuweizisu C]	–	2000	70	–
COc1cc2c(c(OC)c1OC)-c1c(cc3c(c1OC)OCO3)CC(C)C(C)C2 (centres unmarked) [γ-Schizandrin, γ-schizandrin]	60	–	–	–
